Tests used:
[1] = (§1) The drug is tested on WLS-350 corresponding to human gut metagenome with ENA study accession number: PRJEB37062 and ENA sample accession number: ERS12561789 for biotransformation under anaerobic condition. The drug concentrations were measured over 9 timepoints collected between 0 and 24 hours of incubation by liquid-chromatography-coupled mass spectrometry (LC–MS); details: 2 µM
[2] = human gut metagenome, 24 h, 2 µM
[3] = as §1, with “Z-016” for “WLS-350”, “mouse” for “human”, “ERS12561815” for “ERS12561789”; details: 2 µM
[4] = human gut metagenome, 24 h, 2 µM; remark: listed apart in the source
[5] = human gut metagenome, 24 h, 2 µM; remark: listed apart in the source
[6] = as §1, with “WLS-240” for “WLS-350”, “ERS12561773” for “ERS12561789”; details: 2 µM
[7] = as §1, with “WLS-077” for “WLS-350”, “ERS12561750” for “ERS12561789”; details: 2 µM
[8] = as §1, with “WLS-038” for “WLS-350”, “ERS12561745” for “ERS12561789”; details: 2 µM
[9] = human gut metagenome, 24 h, 2 µM; remark: listed apart in the source
[10] = human gut metagenome, 24 h, 2 µM; remark: listed apart in the source
[11] = as §1, with “Z-008” for “WLS-350”, “to” for “to human gut”, “ERS12561808” for “ERS12561789”; details: 2 µM
[12] = human gut metagenome, 24 h, 2 µM; remark: listed apart in the source
[13] = as §1, with “Z-022” for “WLS-350”, “mouse” for “human”, “ERS12561821” for “ERS12561789”; details: 2 µM
[14] = human gut metagenome, 24 h, 2 µM; remark: listed apart in the source
[15] = human gut metagenome, 24 h, 2 µM; remark: listed apart in the source
[16] = human gut metagenome, 24 h, 2 µM; remark: listed apart in the source
[17] = as §1, with “Z-003” for “WLS-350”, “pig” for “human”, “ERS12561803” for “ERS12561789”; details: 2 µM
[18] = human gut metagenome, 24 h, 2 µM; remark: listed apart in the source
[19] = as §1, with “Z-004” for “WLS-350”, “to” for “to human gut”, “ERS12561804” for “ERS12561789”; details: 2 µM
[20] = as §1, with “Z-025” for “WLS-350”, “rabbit” for “human”, “ERS12561824” for “ERS12561789”; details: 2 µM
Also: call rule not given here.

Row | SMILES | Bacterial Biotransformation [1] | Bacterial Biotransformation [2] | Bacterial Biotransformation [3] | Bacterial Biotransformation [4] | Bacterial Biotransformation [5] | Bacterial Biotransformation [6] | Bacterial Biotransformation [7] | Bacterial Biotransformation [8] | Bacterial Biotransformation [9] | Bacterial Biotransformation [10] | Bacterial Biotransformation [11] | Bacterial Biotransformation [12] | Bacterial Biotransformation [13] | Bacterial Biotransformation [14] | Bacterial Biotransformation [15] | Bacterial Biotransformation [16] | Bacterial Biotransformation [17] | Bacterial Biotransformation [18] | Bacterial Biotransformation [19] | Bacterial Biotransformation [20]
1 | Cc1cc2c(s1)Nc1ccccc1N=C2N1CCN(C)CC1 [OLANZAPINE] | Compound NOT metabolized | Compound metabolized | Compound NOT metabolized | Compound NOT metabolized | Compound NOT metabolized | Compound NOT metabolized | Compound metabolized | Compound NOT metabolized | Compound NOT metabolized | Compound NOT metabolized | Compound NOT metabolized | Compound metabolized | Compound NOT metabolized | Compound NOT metabolized | Compound NOT metabolized | Compound metabolized | Compound metabolized | Compound NOT metabolized | Compound metabolized | Compound metabolized
2 | Cc1ccccc1C(OCCN(C)C)c1ccccc1.O=C(O)CC(O)(CC(=O)O)C(=O)O (stereo not given) [ORPHENADRINE CITRATE] | Compound NOT metabolized | Compound NOT metabolized | Compound metabolized | Compound NOT metabolized | Compound metabolized | Compound NOT metabolized | Compound NOT metabolized | Compound NOT metabolized | Compound NOT metabolized | Compound metabolized | Compound NOT metabolized | Compound NOT metabolized | Compound NOT metabolized | Compound NOT metabolized | Compound NOT metabolized | Compound NOT metabolized | Compound NOT metabolized | Compound NOT metabolized | Compound metabolized | Compound metabolized
3 | CC(=O)CCCCn1c(=O)c2c(ncn2C)n(C)c1=O [PENTOXIFYLLINE] | Compound NOT metabolized | Compound NOT metabolized | Compound NOT metabolized | Compound NOT metabolized | Compound NOT metabolized | Compound metabolized | Compound NOT metabolized | Compound NOT metabolized | Compound metabolized | Compound NOT metabolized | Compound NOT metabolized | Compound NOT metabolized | Compound NOT metabolized | Compound NOT metabolized | Compound NOT metabolized | Compound NOT metabolized | Compound NOT metabolized | Compound NOT metabolized | Compound NOT metabolized | Compound NOT metabolized
4 | CCCN1C[C@H](CSC)C[C@@H]2c3cccc4[nH]cc(c34)C[C@H]21.CS(=O)(=O)O [PERGOLIDE MESYLATE] | Compound NOT metabolized | Compound NOT metabolized | Compound NOT metabolized | Compound NOT metabolized | Compound NOT metabolized | Compound NOT metabolized | Compound NOT metabolized | Compound NOT metabolized | Compound NOT metabolized | Compound NOT metabolized | Compound NOT metabolized | Compound NOT metabolized | Compound NOT metabolized | Compound NOT metabolized | Compound NOT metabolized | Compound NOT metabolized | Compound NOT metabolized | Compound NOT metabolized | Compound NOT metabolized | Compound metabolized

Reference: ChEMBL document CHEMBL5724914, “Linking interpersonal differences in gut microbiota composition and drug biotransformation activity” (2024)
